The data set can be described thus: Solubility of agrochemical active ingredients in the solvent compositions: visual observation at 25° C., at 0° C. for 7 days (CIPAC MT39), and at 0° C. with nucleation. To be noted: tebuconazole 300 g/L EC. It is filed as physicochemical. How it is done: 1. Description of the Tests Performed: The formulations were prepared by dilution of various active ingredients reported in the table here below in the compositions 1 to 4 (solvents according to the invention) synthesised here above: a) Visual observation at 25° C.: the appearance of the formulation is noted and the possible presence of crystals is eventually recorded. b) Visual observation at 0° C.: the formulation is placed for a period of 7 days at 0° C. and the appearance of the formulation is noted and the possible presence of crystals is eventually recorded (CIPAC test MT39). c) Visual observation at 0° C. with nucleation (for introduction into the liquid of a crystal of the pure active ingredient): […] The appearance of the formulation is noted and the possible presence of crystals or growth of the crystal introduced is eventually recorded. The active ingredients used are commercially available.

In the case of `CN1CCCC1=O` [Solvent 6, N-methylpyrrolidone], the “State of the solution at +25° C.” value is given as “Clear”. Besides, the “State of the solution at 0° C.” value (7 days at 0° C.) was “Clear”. Moreover, the “State of the solution at 0° C. after seeding” value (crystal introduced, further 7 days at 0° C.) is “Crystal”.
